Results: patent US7820708B2, “Carboxamides” (Bayer CropScience AG, priority 2005, dated 2010)

Experiments:
[1] = system: Alternaria solani; assay: Alternaria test (tomato)/protective; format: in vivo; settings: protective, application rate 1000 ppm, evaluation 7 days after inoculation
Method: (§1) To produce a suitable preparation of active compound, 1 part by weight of active compound is mixed with the stated amounts of solvent and emulsifier and the concentrate is diluted with water to the desired concentration.
To test for protective activity, young tomato plants are sprayed with the active compound preparation at the stated application rate. 1 day after the treatment, the plants are inoculated with a spore suspension of Alternaria solani and then remain at 100% relative atmospheric humidity and 20° C. for 24 h. The plants then remain at 96% relative atmospheric humidity and a temperature of 20° C.
Evaluation is carried out 7 days after the inoculation. 0% means an efficacy which corresponds to that of the control, whereas an efficacy of 100% means that no infection is observed.

[2] = log P determination by HPLC on reversed-phase column (C 18), EEC Directive 79/831 Annex V.A8; format: physicochemical; settings: reversed-phase HPLC column (C 18); pH 2.3; 0.1% aqueous phosphoric acid and acetonitrile; 43° C.
Method: The log P values given in the Tables and Preparation Examples above are determined in accordance with EEC Directive 79/831 Annex V.A8 by HPLC (High Performance Liquid Chromatography) on a reversed-phase column (C 18). Temperature: 43° C. The determination is carried out in the acidic range at pH 2.3 using the mobile phases 0.1% aqueous phosphoric acid and acetonitrile; linear gradient from 10% acetonitrile to 90% acetonitrile. Calibration is carried out using unbranched alkan-2-ones (having 3 to 16 carbon atoms) with known log P values (determination of the log P values by the retention times using linear interpolation between two successive alkanones).

[3] = system: Pyrenophora teres; assay: Pyrenophora teres test (barley)/protective; format: in vivo; settings: protective, application rate 500 ppm, evaluation 8 days after inoculation
Method: as §1
To test for protective activity, young plants are sprayed with the active compound preparation at the stated application rate. After the spray coating has dried on, the plants are sprayed with a conidia suspension of Pyrenophora teres. The plants remain in an incubation cabin at 20° C. and 100% relative atmospheric humidity for 48 hours.
The plants are then placed in a greenhouse at a temperature of about 20° C. and a relative atmospheric humidity of about 80%.
Evaluation is carried out 8 days after the inoculation. 0% means an efficacy which corresponds to that of the control, whereas an efficacy of 100% means that no infection is observed.

[4] = system: Uromyces appendiculatus; assay: Uromyces test (bean)/protective; format: in vivo; settings: protective, application rate 100 ppm, evaluation 10 days after inoculation
Method: To produce a suitable preparation of active compound, 1 part by weight of active compound is mixed within the stated amounts of solvents and emulsifier and the concentrate is diluted with water to the desired concentration.
To test for protective activity, the young plants are sprayed with the active compound preparation at the stated application rate. After the spray coating has dried on, the plants are inoculated with an aqueous spore suspension of the bean rust pathogen Uromyces appendiculatus and then remain in an incubation cabin at about 20° C. and 100% relative atmospheric humidity for 1 day. The plants are then placed in a greenhouse at about 21° C. and a relative atmospheric humidity of about 90%.
Evaluation is carried out 10 days after the inoculation. 0% means an efficiency which corresponds to that of the control, whereas an efficacy of 100% means that no infection is observed.

chromatographic logP [2]	SMILES	Efficacy in % [1] [%]	Efficacy in % [3] [%]	Efficacy in % [4] [%]
3.85	Cn1cc(C(=O)N(c2ccc(F)cc2-c2ccc(Cl)c(Cl)c2)C2CC2)c(C(F)F)n1 [Compound 11]	94		
3.74	Cc1nn(C)c(F)c1C(=O)N(c1ccc(F)cc1-c1ccc(Cl)c(Cl)c1)C1CC1 [Compound 10]	89	95	
5.33	CC(C)CC(C)c1ccccc1NC1CC1 (stereo not drawn) [III-1, N-cyclopropyl-2-(1,3-dimethylbutyl)aniline]			

Continued, molecule first:

SMILES	chromatographic logP [2]	Efficacy in % [1] [%]	Efficacy in % [3] [%]	Efficacy in % [4] [%]
Cn1cc(C(=O)N(c2ccccc2-c2ccc(Cl)cc2)C2CC2)c(C(F)F)n1 [Compound 7]	3.38	89	95	
Cc1nn(C)c(F)c1C(=O)N(c1ccccc1-c1ccc(Cl)cc1)C1CC1 [Compound 6]	3.22		80	93
Cc1nn(C)c(F)c1C(=O)N(c1ccccc1C(C)CC(C)C)C1CC1 (stereo not drawn) [Compound 2]	3.74	100		100
CC(C)CC(C)c1ccccc1N(C(=O)c1cn(C)nc1C(F)F)C1CC1 (stereo not drawn) [Compound 3, N-cyclopropyl-3-(difluoromethyl)-N-[2-(1,3-dimethylbutyl)phenyl]-1-methyl-1H-pyrazol-4-carboxamide]	3.89	94		100
